Results taken from US5447916A, “Peptoid alpha-1 adrenergic receptor ligands” (Chiron Corporation, priority 1993, dated 1995).

Target: α1-adrenergic receptors
Assay: 3H-Prazosin binding assay on rat forebrain membranes
Conditions: for IC50 / Ki: 0.5 nM 3H-Prazosin; for Ki: 1 hr at room temperature; for Percent Inhibition: Inhibition at 100 nM (100 nM receptor concentration as printed), 3H-Prazosin
Description: Preparation of Rat Forebrain Membranes:
Rat brains were purchased from Animal Technologies, Tyler, Tex., and shipped on wet ice within 24 hours after being harvested. The forebrains were dissected and homogenized with a Tissue Tearor in 50 mM Tris, pH 7.5, containing 20 mM NaCl, 5 mM EGTA, 2 mM MgCl2, 21 μg/mL aprotinin, 0.5 mg/L leupeptin, 0.7 mg/L pepstatin, 0.2 mM PMSF. Each brain is homogenized in approximately 5 mL of this buffer. The homogenate is then spun at 1000 RPM (75×g) in a Sorval RC-5B centrifuge (SS-34 rotor) for 10 min. The pellets are discarded and the supernatants then respun at 17,000 RPM (22,500×g) for 15 min. The pellets were then resuspended in the same buffer as above containing 5 mM EDTA and no MgCl2 (1 brain/mL). Membranes were stored in 1 mL aliquots at -70° C.
Thawed membranes were dispersed into a homogenous solution by passing them through a 22 gauge needle 5 times. To initiate the assay, 50 μL of membrane were dispensed into a plastic 12×75 mm tube containing 1 mL of 50 mM Tris, pH 7.5, 0.5 nM ^3 H-Prazosin (New England Nuclear), and the compounds to be tested. Nonspecific binding was determined as ^3 H-Prazosin bound in the presence of 5 μM unlabeled prazosin. Incubation was for 1 hr at room temperature. Unbound radioactivity was removed by rinsing the membranes on Whatman GF/B glass fiber filters. Each filter was washed 3 times with 3 mL of 50 mM Tris, pH 7.5, 4° C. Filters were soaked overnight in 5 mL of Beckman ReadySafe scintillation cocktail then counted for one minute in a Wallac 1409 liquid scintillation counter.

Compound | IC50 | Ki | Percent Inhibition
NC(=O)CN(CCc1ccccc1)C(=O)CN(C(=O)CNCCc1ccc(O)cc1)c1ccc(-c2ccccc2)cc1 [Nhtyr--Nbiph--Nhphe, Nhtyr-Nbiph-Nhphe] | 19 nM | 7 nM | 
Nhtyr- Npbiph-Nhphe [Nhtyr--Npbiph--Nhphe] |  |  | 20.3%
Nhtyr--Nbiph--Nbhm | 1400 nM | 313 nM | 
Bz-Nhphe-Nbiph-Nhphe [Bz--Nhphe--Nbiph--Nhphe] |  |  | 24.8%
Nhtyr-Nbiph-Nphphe [Nhtyr--Nbiph--Nphphe] |  |  | 48.3%
Noco-Nbiph-Nhphe [Noco--Nbiph--Nhphe] |  |  | 23.6%
Nphtyr-Nbiph-Nhphe [Nphtyr--Nbiph--Nhphe] |  |  | 22.7%
Nzhphe-Nbiph-Nhphe [Nzhphe--Nbiph--Nhphe] |  |  | 53.9%
Nhtyr-Npop-Nhphe [Nhtyr--Npop--Nhphe] | 490 nM | 140 nM | 
Nhtyr-Nbiph-Nmhphe [Nhtyr--Nbiph--Nmhphe] |  |  | 21.2%
